This is an account of results in paper PMC11721616, “Evaluation of N-alkyl isatins and indoles as acetylcholinesterase and butyrylcholinesterase inhibitors” (Journal of Enzyme Inhibition and Medicinal Chemistry, 2023).

Where “and” joins values, the source holds several entries; their conditions need not be identical. Equal values may be shown once. Read-outs that look alike come from different tables or passages of the source. Some results are limits rather than exact numbers.

The target of experiment [1] is T1, BChE (Equus caballus, UniProt P81908).
T1 construct: BChE (Lee Biosolutions, Product No. 130–10-1, from equine serum); purchased Lee Biosolutions 130–10-1; host or cells: equine serum
The conditions noted are these: previously reported; cited from earlier work.

Experiment [2] deals with T2, AChE (Electrophorus electricus, UniProt O42275).
T2 construct: purchased Sigma-Aldrich C2888
The conditions noted are these: previously reported; cited from earlier work.

Experiment [3] addresses T2, AChE. The conditions noted are these: values previously determined; cited from earlier work.
Experiment [4] concerns the target T2, AChE. Kind of experiment: AChE inhibition assay (Ellman method). The class given is biochemical. The method, then: (§1) Inhibition of AChE (Sigma-Aldrich, Product No. C2888, from Electrophorus electricus) and BChE (Lee Biosolutions, Product No. 130–10-1, from equine serum) was carried out as previously described by our lab[18]^,[19]. Briefly, compounds to be tested were prepared in sodium phosphate (dibasic) buffer (0.1 M) containing 10% DMSO and then diluted with phosphate buffer across the wells of a 96-well plate to reach desired concentrations (50 µL total well volume). AChE (50 µL, 400 U/L, in phosphate buffer) or BChE (50 µL, 400 U/L, in phosphate buffer) was added to the appropriate wells. After incubation, the enzymatic reaction was initiated with 100 µL of a 1:1 (v/v) solution of acetylthiocholine (ATC, 2 mM in phosphate buffer) or butyrylthiocholine (BTC, 2 mM in phosphate buffer) and 5,5′-dithiobis-(2-nitrobenzoic acid) (DTNB, 1 mM in phosphate buffer). […] IC50 values were calculated using GraphPad Prism 9.1.1.
(§2) The synthesis of the target molecules 4a-j and 5a-j was carried out in straightforward fashion by substitution of isatin or indole with iodomethane or 1-bromoalkanes in the presence of K2CO3 and DMF or NaOH and DMSO (Scheme 1). […] A DEPT135 experiment was run to differentiate this signal (negative) from the solvent (positive) (see supplementary data), as we have employed previosuly. The synthesised compounds were then evaluated as AChEI and BChEI using the established Ellman method. Results are reported as IC50 values in Table 1.
On the technique in general: In Ellman's method for cholinesterases, released thiocholine reacts with DTNB.

The target of experiment [5] is BChE. The conditions noted are these: previously reported by Hyatt et al.; cited from earlier work.
The target in experiment [6] is T1, BChE. The experiment can be described thus: biochemical. The format is biochemical. The conditions noted are these: for Selectivity: calculated as AChE IC50/BChE IC50. How it is done:
as §1, §2

Experiment [7] concerns the target AChE. The conditions noted are these: previously reported by Hyatt et al.; cited from earlier work.
Experiment [8] addresses T1, BChE. Kind of experiment: Kinetics assay of BChE inhibition (Lineweaver-Burk plot). The conditions noted are these: Lineweaver-Burk analysis with respect to butyrylthiocholine (BTC). The class given is biochemical, equine. How it is done: (§3) Kinetics assays of 4i inhibition with AChE and BChE were also carried out as previously described[18]^,[19]. Briefly, varying concentrations of 4i were incubated with AChE and BChE before initiating the enzymatic reactions by addition of 100 µL of a 1:1 (v/v) solution of ATC or BTC (0.4 mM, 0.5 mM, 1 mM, or 2 mM in phosphate buffer) and DTNB (1 mM in phosphate buffer) to all wells. […] Rate vs concentration was fitted to a Lineweaver-Burk plot using GraphPad Prism 9.1.1.

Experiment [9] has as its target T2, AChE. The experiment can be described thus: Kinetics assay of AChE inhibition (Lineweaver-Burk plot). The format is biochemical. The conditions noted are these: Lineweaver-Burk analysis with respect to acetylthiocholine (ATC). How it is done: as §3
In experiment [10] the target is T1, BChE. The conditions noted are these: read-out: BChE IC50; values previously determined; cited from earlier work.
Setting [11] is: mean of three independent experiments ± SEM, > X = highest soluble concentration tested, read-out: AChE IC50.
Where [12] appears, read: mean of three independent experiments ± SEM, > X = highest soluble concentration tested, read-out: BChE IC50.

T1 sequence (P81908 whole entry): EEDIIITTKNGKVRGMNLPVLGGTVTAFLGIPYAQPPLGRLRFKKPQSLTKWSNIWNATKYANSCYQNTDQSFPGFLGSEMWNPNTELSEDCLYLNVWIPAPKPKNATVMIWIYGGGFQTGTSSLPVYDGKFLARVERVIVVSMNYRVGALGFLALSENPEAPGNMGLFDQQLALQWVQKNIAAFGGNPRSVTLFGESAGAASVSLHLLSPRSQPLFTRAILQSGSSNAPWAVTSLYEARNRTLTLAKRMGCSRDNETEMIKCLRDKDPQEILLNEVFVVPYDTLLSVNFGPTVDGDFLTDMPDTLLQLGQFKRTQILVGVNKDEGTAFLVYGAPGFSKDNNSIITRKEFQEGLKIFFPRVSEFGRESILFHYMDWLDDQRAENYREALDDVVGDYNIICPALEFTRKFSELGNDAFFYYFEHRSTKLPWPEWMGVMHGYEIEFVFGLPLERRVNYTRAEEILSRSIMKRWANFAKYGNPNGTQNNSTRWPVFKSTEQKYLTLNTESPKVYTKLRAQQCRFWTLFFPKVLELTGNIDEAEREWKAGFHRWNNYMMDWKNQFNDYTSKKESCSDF
T2 sequence (O42275 24-633): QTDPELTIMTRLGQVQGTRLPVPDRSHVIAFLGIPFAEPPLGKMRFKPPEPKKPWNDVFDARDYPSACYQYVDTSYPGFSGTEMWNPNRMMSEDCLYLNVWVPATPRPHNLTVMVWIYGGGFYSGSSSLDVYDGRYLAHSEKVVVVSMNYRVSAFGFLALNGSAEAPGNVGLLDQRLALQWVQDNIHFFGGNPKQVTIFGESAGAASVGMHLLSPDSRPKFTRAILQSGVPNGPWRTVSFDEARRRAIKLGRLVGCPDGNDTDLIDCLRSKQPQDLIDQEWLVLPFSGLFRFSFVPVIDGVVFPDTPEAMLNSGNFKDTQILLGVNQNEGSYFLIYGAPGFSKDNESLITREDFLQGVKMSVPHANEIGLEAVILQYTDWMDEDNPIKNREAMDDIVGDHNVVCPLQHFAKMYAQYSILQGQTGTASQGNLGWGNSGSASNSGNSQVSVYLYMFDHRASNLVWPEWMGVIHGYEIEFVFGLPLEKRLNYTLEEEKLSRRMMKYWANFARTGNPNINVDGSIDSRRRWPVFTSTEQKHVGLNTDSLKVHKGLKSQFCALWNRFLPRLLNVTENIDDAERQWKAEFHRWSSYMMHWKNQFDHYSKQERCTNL

Turning to `O=C1C(=O)N(CCCCCN2C(=O)C(=O)c3ccccc32)c2ccccc21` [Compound 1], the “mode of inhibition of BChE” value in experiment [1] is “mixed inhibition”.

With `C=C1SC(SCCCN2C(=O)C(=O)c3ccccc32)=NC1(C)C` [Compound 3], in experiment [2], the “mode of inhibition of AChE” value is given as “non-competitive inhibition”. In experiment [3], the IC50 was 18.2 µM.

For `CN1C(=O)C(=O)c2ccccc21` [Compound 4a, 1-Methylindoline-2,3-dione], the results for the IC50 in experiment [4] and in [6] were 647 ± 57 µM and above 1000 µM, respectively. Further, the Ki in experiment [5] and in experiment [7] was above 100 µM throughout. Moreover, the Selectivity in experiment [6] was below 0.6.

`CCN1C(=O)C(=O)c2ccccc21` [Compound 4b, 1-Ethylindoline-2,3-dione]: the IC50 in experiment [4] (setting [11]) is 297 ± 35 µM; in experiment [6] (setting [12]), 193 ± 8 µM. Further, the Selectivity in experiment [6] is 1.5.

As for `CCCN1C(=O)C(=O)c2ccccc21` [Compound 4c, 1-Propylindoline-2,3-dione], the IC50 came out at 519 ± 11 µM in experiment [4] (setting [11]) and 257 ± 8 µM in experiment [6] (setting [12]). The Selectivity in experiment [6] is listed as 2.0.

For `CCCCN1C(=O)C(=O)c2ccccc21` [Compound 4d, 1-Butylindoline-2,3-dione], the Selectivity in experiment [6] is on record as 7.3. Further, the IC50 is 73.7 ± 1.3 µM in experiment [6] (setting [12]) and 540 ± 23 µM in experiment [3].

Take `CCCCCN1C(=O)C(=O)c2ccccc21` [Compound 4e, 1-Pentylindoline-2,3-dione]: the IC50 in experiment [4] (setting [11]) was 197 ± 51 µM; in [6] (setting [12]), 83.8 ± 3.4 µM. Besides, in experiment [6], the Selectivity is given as 2.4.

For the compound `CCCCCCN1C(=O)C(=O)c2ccccc21` [Compound 4f, 1-Hexylindoline-2,3-dione], the IC50 in experiment [4] (setting [11]) is above 125 µM; in experiment [6] (setting [12]), 90.8 ± 2.3 µM. Further, in [6], the Selectivity is above 1.4.

Turning to `CCCCCCCN1C(=O)C(=O)c2ccccc21` [Compound 4g, 1-Heptylindoline-2,3-dione], the IC50 in [4] (setting [11]) is 67.8 ± 7.8 µM; in experiment [6] (setting [12]), 20.7 ± 3.3 µM. For the same compound, the Selectivity in [6] is listed as 3.3.

For the compound `CCCCCCCCN1C(=O)C(=O)c2ccccc21` [Compound 4h, 1-Octylindoline-2,3-dione], the IC50 was above 125 µM in experiment [4] (setting [11]) and 17.9 ± 1.8 µM in [6] (setting [12]). For the same compound, the Selectivity in [6] is above 7.0.

For the compound `CCCCCCCCCN1C(=O)C(=O)c2ccccc21` [Compound 4i, 1-Nonylindoline-2,3-dione], the IC50 in experiment [4] (setting [11]) is 82.1 ± 8.1 µM; in experiment [6] (setting [12]), 3.77 ± 0.45 µM. For the same compound, the “mode of inhibition of BChE” value in experiment [8] is “mixed inhibition”. Also, the “mode of inhibition of AChE” value in experiment [9] is on record as “non-competitive inhibition”. In addition, in [6], the Selectivity was 22 and 21.8.

Consider `CCCCCCCCCCN1C(=O)C(=O)c2ccccc21` [Compound 4j, 1-Decylindoline-2,3-dione], for which the figures for the concentration for half-maximal inhibition (IC50) in experiment [4] (setting [11]) and in experiment [6] (setting [12]) were 62.2 ± 8.5 µM and 5.16 ± 0.66 µM, respectively. Also, the Selectivity in [6] is 12.1.

With `Cn1ccc2ccccc21` [Compound 5a, 1-Methyl-1H-indole], the IC50 in experiment [4] amounted to 86.7 ± 4.5 µM. In addition, in experiment [6], the IC50 is above 125 µM and the Selectivity is on record as below 0.7.

As to `CCn1ccc2ccccc21` [Compound 5b, 1-Ethyl-1H-indole], the IC50 in experiment [4] is 101 ± 6 µM; in experiment [6], above 125 µM. The Selectivity in experiment [6] is below 0.8.

With `CCCn1ccc2ccccc21` [Compound 5c, 1-Propyl-1H-indole], the IC50 in [4] (setting [11]) was 78.6 ± 2.3 µM; in experiment [6] (setting [12]), above 125 µM. In addition, the Selectivity in experiment [6] is below 0.6.

On to `CCCCn1ccc2ccccc21` [Compound 5d, 1-Butyl-1H-indole], for which the IC50 in [4] (setting [11]) and in [6] (setting [12]) was above 125 µM in each case.

For `CCCCCn1ccc2ccccc21` [Compound 5e, 1-Pentyl-1H-indole], the IC50 in [4] (setting [11]) was 95 ± 5.9 µM; in experiment [6] (setting [12]) it was above 125 µM. In [6], the Selectivity is below 0.8.

As to `CCCCCCn1ccc2ccccc21` [Compound 5f, 1-Hexyl-1H-indole], the IC50 in [4] (setting [11]) is 76.2 ± 1.6 µM; in [6] (setting [12]) it was above 125 µM. Besides, in experiment [6], the Selectivity is recorded as below 0.6.

Consider `CCCCCCCn1ccc2ccccc21` [Compound 5g, 1-Heptyl-1H-indole], for which the results for the IC50 in [4] (setting [11]) and in experiment [6] (setting [12]) were 35 ± 10.5 µM and above 62.5 µM, respectively. Also, in [6], the Selectivity is given as below 0.6.

For the compound `CCCCCCCCn1ccc2ccccc21` [Compound 5h, 1-Octyl-1H-indole], the figures for the IC50 in experiment [4] (setting [11]) and in experiment [6] (setting [12]) were 49.5 ± 1.8 µM and above 62.5 µM, respectively. Moreover, the Selectivity in [6] is recorded as below 0.8.

Regarding `CCCCCCCCCn1ccc2ccccc21` [Compound 5i, 1-Nonyl-1H-indole], the results for the IC50 in [4] (setting [11]) and in [6] (setting [12]) were 44.6 ± 1.7 µM and above 62.5 µM, respectively. Moreover, in experiment [6], the Selectivity is listed as below 0.7. Besides, the “loss of potency towards BChE compared to 4i” value in experiment [6] (inhibition assay, 5i vs 4i) was above 17 fold.

Consider `CCCCCCCCCCn1ccc2ccccc21` [Compound 5j, 1-Decyl-1H-indole], for which the values for the IC50 in experiment [4] (setting [11]) and in [6] (setting [12]) were 48.6 ± 1.4 µM and above 62.5 µM, respectively. In addition, in experiment [6], the Selectivity is given as below 0.8.

Consider `CCCCCCCCCCCCN1C(=O)C(=O)c2ccccc21` [N-dodecyl isatin], for which the Ki in experiment [5] and in experiment [7] was above 100 µM in each case.

Regarding `CCCCCCCCCCCCCCCCN1C(=O)C(=O)c2ccccc21` [N-hexadecyl isatin], the Ki in experiment [5] and in experiment [7] was above 100 µM in each case.

Regarding `O=C1Nc2ccccc2C1=O` [isatin, indoline-2,3-dione], the IC50 in experiment [10] and in experiment [3] was above 1000 µM throughout.

A word on the IC50: it is the concentration needed to halve the response being measured. Broadly, the Ki is the dissociation constant of the complex between target and ligand, obtained from inhibition or displacement.
